Measurements taken from patent US7732504B2, “Functionalized photoinitiators” (Ciba Specialty Chemicals Corporation, priority 2004, dated 2010).

Assays:
[1] = Solubility of the initiator in the blue offset printing ink formulation; assay type: physicochemical; parameters: key: good (+); acceptable (±); bad (−)
Protocol: (§1) A photocurable blue offset printing ink is prepared in accordance with the following formulation: […]
18.3 g of Ebecryl® 1608 (UCB, Belgium)
18.3 g of Ebecryl® 657 (polyester acrylate from UCB, Belgium)
20.0 g of Ebecryl® 220 (urethane acrylate from UCB, Belgium)
20.9 g of Ebecryl® 150 (bisphenol A derivative diacrylate from UCB, Belgium)
22.5 g Irgalit blue GLO (Cu-phthalocyanine pigment from Ciba Specialty Chemicals)
(§2) The above components are grounded down to a stock paste. Portions of the stock paste are mixed with the photoinitiators indicated in the table (% by weight on the stock paste). The solubility of the initiator in the formulation is rated as good (+), acceptable (±) or bad (−) and the results shown in Table 1.

[2] = Solubility of the initiator in the blue flexo printing ink formulation; assay type: physicochemical; parameters: key: good (+); acceptable (±); bad (−); conditions: photoinitiator conc 6.0 % by weight on the stock paste
Protocol: (§3) A photocurable blue flexo printing ink is prepared in accordance with the following formulation: […]
26.9 g of IRR 440 (flexo basic resin)
19.0 g of OTA 480 (acrylated trifunctional resin, UCB, Belgium)
18.0 g of Ebecryl® 645 (modified diacrylate of Bisphenol A epoxy resin diluted with 25% of TPGDA, from UCB, Belgium)
13.0 g of HDDA (1,6-hexanediol diacrylate)
10.0 g of Ebecryl® 220 (urethane acrylate from UCB, Belgium)
1.3 g of Ebecryl® 168 (methacrylated acidic compound from UCB, Belgium)
0.7 g of DC 57 (Leveling agent)
11.1 g Irgalit blue GLO (Cu-phthalocyanine pigment from Ciba Specialty Chemicals)
(§4) The above components are grounded down to a stock paste. Portions of the stock paste are mixed with the photoinitiators indicated in the table (% by weight on the stock paste). The solubility of the initiator in the formulation is rated as good (+), acceptable (±) or bad (−) and the results shown in Table 2.

[3] = Curing of a blue flexo printing ink on a white polyethylene foil (maximum rate of passage, 120 W/cm mercury lamp); conditions: conc 6.0 %, blue flexo ink on corona treated white polyethylene foil
Protocol: Curing of a Blue Flexo Printing Ink on a White Polyethylene Foil
as §3, §4
The blue printing ink thus obtained is applied with […] 1.5 μm thickness on a corona treated white polyethylene foil using a Prüfbau laboratory printing equipment. The samples are exposed in an irradiation apparatus with a 120 W/cm mercury lamp (IST). The rate of passage of the sample through the irradiation apparatus is thereby increased continuously until adequate curing no longer occurs. The adhesion of the cured film to the foil is measure by the Tesa tape test.

[4] = Curing of a blue offset printing ink on white paper (maximum rate of passage, 80 W/cm mercury lamp); conditions: for curing rate (m/min) for surface cure / curing rate (m/min) for through cure: blue offset ink 1.5 g/m^2 on white paper, 80 W/cm mercury lamp
Protocol: Curing of a Blue Offset Printing Ink on White Paper
as §1, §2
The blue printing ink thus obtained is applied with 1.5 g/m^2 (˜1.5 μm thickness) on white paper using a Prüfbau laboratory printing equipment. The samples are exposed in an irradiation apparatus with a 80 W/cm mercury lamp (IST). The rate of passage of the sample through the irradiation apparatus is thereby increased continuously until adequate curing no longer occurs. The odor of the cured film is rated on a scale from 1 (odorless) to 3 (strong odor).

[5] = photoinitiator conc 3.0 % by weight on the stock paste
[6] = photoinitiator conc 4.0 % by weight on the stock paste

| SMILES | melting point [°C] | solubility [1, 5] | solubility [1, 6] | solubility [2] | curing rate (m/min) for surface cure [3] [m/min] | curing rate (m/min) for through cure [3] [m/min] | efficiency as a photoinitiator compared with the reference compounds ([4]; blue offset printing ink, versus Irgacure 369 and Irgacure 907) | curing rate (m/min) for surface cure ([4]; conc 3.0 %) [m/min] | curing rate (m/min) for through cure ([4]; conc 3.0 %) [m/min] | curing rate (m/min) for surface cure ([4]; conc 4.0 %) [m/min] | curing rate (m/min) for through cure ([4]; conc 4.0 %) [m/min] |
| --- | --- | --- | --- | --- | --- | --- | --- | --- | --- | --- | --- |
| CCCC(CC)(C(=O)c1ccc(NCCO)cc1)N(C)C (stereo not shown) | 74 to 77 |  |  |  |  |  |  |  |  |  |  |
| CCC(Cc1ccccc1)(C(=O)c1ccc(NCCO)cc1)N(C)C (stereo not shown) [Example 1, 2-benzyl-1-[4-(2-hydroxyethylamino)phenyl]-2-dimethylamino-1-butanone] | 109 to 111 | + | + | + | 200 | 40 | more efficient as a photoinitiator than the reference compounds | 100 | 120 | 140 | 170 |
| CC(C)(C(=O)c1ccc(NCCO)cc1)N1CCOCC1 [Example 6, 1-[4-(2-hydroxyethyamino)phenyl]-2-methyl-2-(morpholin-4-yl)-1-propanone] | 77 to 78 |  |  |  |  |  |  |  |  |  |  |
| CCC(Cc1ccccc1)(C(=O)c1ccc(N2CCOCC2)cc1)N(C)C (stereo not shown) [Irgacure 369, 2-benzyl-2-(dimethylamino)-1-[4-(4-morpholinyl)phenyl]-1-butanone] |  | − | − | + | 170 | 90 |  | 70 | 110 | 90 | 130 |
| CSc1ccc(C(=O)C(C)(C)N2CCOCC2)cc1 [Irgacure 907] |  |  | + |  |  |  |  |  |  | 80 | 90 |
